Our source for the IC50, AC50 and EC50 values is ChEMBL document CHEMBL1201862, “PubChem BioAssay data set” (2004).

Calls of active or inactive are those of the source.

Assay [1] deals with CHO-K1. Nature of the assay: Counterscreen for antagonists of the orexin 1 receptor (OX1R; HCRTR1): Homogeneous time resolved fluorescence (HTRF)-based cell-based dose response assay to identify antagonists of the parental CHO-K1 cell line. [Related pubchem assays (depositor defined):AID434989, AID435008, AID463079, AID485270, AID492963, AID492964, AID492965, AID493232, AID504699, AID504701]. Format: functional. As to conditions: Cricetulus griseus.

The nature of assay [2]: Counterscreen for antagonists of the orexin 1 receptor (OX1R; HCRTR1): Fluorescence-based cell-based high throughput dose response assay to identify antagonists of the parental CHO cell line. [Related pubchem assays (depositor defined):AID434989, AID435008, AID463079, AID485270, AID492963, AID492964, AID492965, AID493232, AID504699, AID504701]. The format is functional. A general note: The purpose of a counterscreen is to sort out artefacts and off-target activity.

For assay [3], the target named is T1, Orexin/Hypocretin receptor type 1 (Homo sapiens, UniProt O43613). Description: Homogeneous Time Resolved Fluorescence (HTRF)-based cell-based high throughput dose response assay for antagonists of the orexin 1 receptor (OX1R; HCRTR1). [Related pubchem assays (depositor defined):AID434989, AID435008, AID463079, AID485270, AID492963, AID492964, AID492965, AID493232, AID504717, AID504718]. Format: functional.

Assay [4] has as its target T1, Orexin/Hypocretin receptor type 1. Description: Fluorescence-based cell-based high throughput dose response assay for antagonists of the orexin 1 receptor (OX1R; HCRTR1). [Related pubchem assays (depositor defined):AID434989, AID435008, AID463079, AID485270, AID492963, AID492964, AID492965, AID493232, AID504717, AID504718]. The format is functional.
For assay [5], the target named is T2, Orexin receptor type 2 (Homo sapiens, UniProt O43614). Nature of the assay: Counterscreen assay for antagonists of the orexin 1 receptor (OX1R; HCRTR1): Fluorescence-based cell-based dose response assay for antagonists of the orexin 2 receptor (OX2R; HCRTR2), run by assay provider. The format is functional.
The target of assay [6] is T2, Orexin receptor type 2. Description: Counterscreen assay for antagonists of the orexin 1 receptor (OX1R; HCRTR1): Homogeneous Time Resolved Fluorescence (HTRF)-based cell-based dose response assay for antagonists of the orexin 2 receptor (OX2R; HCRTR2), run by assay provider. Format: functional.
Assay [7] deals with T3, Sentrin-specific protease 8 (Homo sapiens, UniProt Q96LD8).
T3 sequence (Q96LD8 whole entry): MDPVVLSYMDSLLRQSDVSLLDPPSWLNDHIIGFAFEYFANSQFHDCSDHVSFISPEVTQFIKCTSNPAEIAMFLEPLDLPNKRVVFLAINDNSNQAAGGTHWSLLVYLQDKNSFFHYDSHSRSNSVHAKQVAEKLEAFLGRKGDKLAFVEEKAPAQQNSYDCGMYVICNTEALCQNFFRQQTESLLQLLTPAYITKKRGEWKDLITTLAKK
Nature of the assay: inhibition of human SENP8 cleavage activity – biochemical, luminescence, SAR follow-up (AID 504501). Format: functional.

Assay [8] has as its target T4, Caspase-3 (Homo sapiens, UniProt P42574).
T4 sequence (P42574 whole entry): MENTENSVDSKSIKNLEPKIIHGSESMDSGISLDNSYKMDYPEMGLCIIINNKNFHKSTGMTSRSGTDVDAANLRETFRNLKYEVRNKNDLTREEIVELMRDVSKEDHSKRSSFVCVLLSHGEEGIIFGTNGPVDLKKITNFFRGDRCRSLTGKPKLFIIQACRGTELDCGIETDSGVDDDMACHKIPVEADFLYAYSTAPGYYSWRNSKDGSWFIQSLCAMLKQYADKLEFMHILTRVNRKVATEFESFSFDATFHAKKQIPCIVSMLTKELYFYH
Description: SAR Analysis of small molecule inhibitors of Sentrin-specific proteases (SENPs) using a Caspase-3 Selectivity assay. [Related pubchem assays (depositor defined):AID2540, AID2599, AID434973, AID489001]. The format is functional.

The target of assay [9] is T5, Sentrin-specific protease 6 (Homo sapiens, UniProt Q9GZR1).
T5 sequence (Q9GZR1 whole entry): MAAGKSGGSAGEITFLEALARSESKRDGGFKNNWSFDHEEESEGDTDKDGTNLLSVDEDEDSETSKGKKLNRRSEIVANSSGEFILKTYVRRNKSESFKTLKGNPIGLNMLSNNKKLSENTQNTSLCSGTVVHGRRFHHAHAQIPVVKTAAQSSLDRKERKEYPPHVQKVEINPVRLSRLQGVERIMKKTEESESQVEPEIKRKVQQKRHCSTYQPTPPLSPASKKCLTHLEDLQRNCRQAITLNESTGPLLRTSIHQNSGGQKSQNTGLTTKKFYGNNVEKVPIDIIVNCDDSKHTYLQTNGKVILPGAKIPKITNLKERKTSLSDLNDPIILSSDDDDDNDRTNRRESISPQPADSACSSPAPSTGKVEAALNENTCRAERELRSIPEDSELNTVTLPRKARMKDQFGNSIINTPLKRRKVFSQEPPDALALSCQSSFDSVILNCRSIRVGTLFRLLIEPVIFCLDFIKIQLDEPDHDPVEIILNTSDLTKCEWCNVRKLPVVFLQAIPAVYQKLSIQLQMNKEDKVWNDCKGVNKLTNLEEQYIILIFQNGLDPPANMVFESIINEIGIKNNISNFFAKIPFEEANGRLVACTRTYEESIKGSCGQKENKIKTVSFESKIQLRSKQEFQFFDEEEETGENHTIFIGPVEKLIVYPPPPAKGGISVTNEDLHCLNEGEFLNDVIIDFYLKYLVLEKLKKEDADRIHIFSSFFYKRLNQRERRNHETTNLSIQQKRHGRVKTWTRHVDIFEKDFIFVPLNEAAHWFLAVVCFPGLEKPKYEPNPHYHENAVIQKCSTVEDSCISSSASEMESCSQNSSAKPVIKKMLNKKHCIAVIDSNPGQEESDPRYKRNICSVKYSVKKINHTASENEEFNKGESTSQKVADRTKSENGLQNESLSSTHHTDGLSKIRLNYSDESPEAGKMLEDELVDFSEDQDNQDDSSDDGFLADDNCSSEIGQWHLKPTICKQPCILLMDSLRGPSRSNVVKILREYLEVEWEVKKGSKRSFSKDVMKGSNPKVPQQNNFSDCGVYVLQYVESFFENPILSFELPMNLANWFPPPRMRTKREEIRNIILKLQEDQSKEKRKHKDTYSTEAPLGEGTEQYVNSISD
Nature of the assay: SAR Analysis of small molecule inhibitors of Sentrin-specific protease 6 (SENP6) using a Luminescent assay. [Related pubchem assays (depositor defined):AID2582, AID2599]. The format is functional.

In assay [10] the target is T6, Sentrin-specific protease 7 (Homo sapiens, UniProt Q9BQF6).
T6 sequence (Q9BQF6 whole entry): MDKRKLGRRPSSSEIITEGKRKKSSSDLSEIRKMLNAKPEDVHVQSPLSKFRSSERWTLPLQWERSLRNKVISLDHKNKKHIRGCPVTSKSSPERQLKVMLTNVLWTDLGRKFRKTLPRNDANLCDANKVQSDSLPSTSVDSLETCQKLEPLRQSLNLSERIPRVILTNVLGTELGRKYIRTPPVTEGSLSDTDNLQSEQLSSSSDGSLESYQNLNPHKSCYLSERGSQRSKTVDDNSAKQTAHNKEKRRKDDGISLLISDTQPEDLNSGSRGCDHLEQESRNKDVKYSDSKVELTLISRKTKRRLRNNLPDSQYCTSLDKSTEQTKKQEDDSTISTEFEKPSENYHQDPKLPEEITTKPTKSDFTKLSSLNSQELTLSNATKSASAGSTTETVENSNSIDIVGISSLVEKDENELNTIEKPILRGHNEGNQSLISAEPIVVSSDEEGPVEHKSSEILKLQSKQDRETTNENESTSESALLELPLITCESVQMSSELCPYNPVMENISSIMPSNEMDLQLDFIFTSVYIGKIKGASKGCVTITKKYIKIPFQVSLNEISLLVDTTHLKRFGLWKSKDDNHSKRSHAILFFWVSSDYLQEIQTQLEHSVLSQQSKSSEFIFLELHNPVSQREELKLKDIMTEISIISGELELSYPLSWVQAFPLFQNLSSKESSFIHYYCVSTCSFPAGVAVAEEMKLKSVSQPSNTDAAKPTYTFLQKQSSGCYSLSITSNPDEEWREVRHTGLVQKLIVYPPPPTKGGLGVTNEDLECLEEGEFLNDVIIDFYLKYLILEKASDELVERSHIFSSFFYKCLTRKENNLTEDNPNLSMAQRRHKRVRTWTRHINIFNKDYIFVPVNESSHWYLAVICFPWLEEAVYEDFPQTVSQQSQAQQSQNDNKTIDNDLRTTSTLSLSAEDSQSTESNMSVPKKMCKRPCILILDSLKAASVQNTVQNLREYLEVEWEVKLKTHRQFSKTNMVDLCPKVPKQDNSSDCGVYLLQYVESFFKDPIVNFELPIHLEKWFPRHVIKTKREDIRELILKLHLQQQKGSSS
Description: inhibition of human SENP7 cleavage activity – biochemical, luminescence, SAR follow-up (AID 504497). Format: functional.

Assay [11] deals with INS1. Nature of the assay: suppression of NO production in INS-1E cells – cell-based, Griess absorbance, dry powder, set 2, dose response (AID 488868). The following applies: Rattus norvegicus. Format: functional. On the technique in general: Griess reagent forms a coloured azo dye with nitrite.
Assay [12] in a line: Luminescence Cell-Based Dose Retest to Confirm Inhibitors of Cancer Stem Cells. [Related pubchem assays (depositor defined):AID2717, AID2721]. Format: functional. The following applies: Homo sapiens.
Assay [13] addresses T7, Insulin-degrading enzyme (Homo sapiens, UniProt P14735). Description: recombinant IDE activation, cell-free – biochemical, fluorescence polarization, counter-screen for IDE activator project, dose response (AID 588681). Background: Fluorescence polarisation rises when a labelled molecule tumbles more slowly, as on binding a larger partner.
Assay [14] concerns the target T7, Insulin-degrading enzyme. Nature of the assay: cellular IDE activation of Abeta substrate cleavage – fluorescence polarization, HEK cells, dose response (AID 588439). The format is functional, cell-based.
Assay [15] has as its system HEK293. Nature of the assay: membrane integrity loss in HEK cells – cell-based, fluorescence, cytotoxicity control for IDE activator project, dose response (AID 588440).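 Note: cytotoxicity by LDH release measuring loss of membrane integrity.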 As to conditions: Homo sapiens. Format: functional.
In assay [16] the test system is HEK293. Nature of the assay: optical interference in Abeta FP readout, dose response, artefact control for IDE activator project, biochemical, fluorescence polarization (AID 588442). Format: functional, cell-based. The following applies: Homo sapiens.

T1 sequence (O43613 whole entry): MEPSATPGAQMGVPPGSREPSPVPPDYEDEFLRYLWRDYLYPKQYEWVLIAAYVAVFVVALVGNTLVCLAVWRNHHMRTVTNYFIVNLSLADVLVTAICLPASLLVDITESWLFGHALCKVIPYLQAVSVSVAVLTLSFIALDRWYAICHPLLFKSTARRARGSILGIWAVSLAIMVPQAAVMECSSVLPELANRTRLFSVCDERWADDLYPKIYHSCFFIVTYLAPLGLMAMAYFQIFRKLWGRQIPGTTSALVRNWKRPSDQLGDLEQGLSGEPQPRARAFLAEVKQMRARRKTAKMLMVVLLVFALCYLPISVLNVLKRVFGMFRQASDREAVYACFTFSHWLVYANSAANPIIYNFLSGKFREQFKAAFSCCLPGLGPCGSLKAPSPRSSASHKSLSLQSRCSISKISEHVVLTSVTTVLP
T7 sequence (P14735 whole entry): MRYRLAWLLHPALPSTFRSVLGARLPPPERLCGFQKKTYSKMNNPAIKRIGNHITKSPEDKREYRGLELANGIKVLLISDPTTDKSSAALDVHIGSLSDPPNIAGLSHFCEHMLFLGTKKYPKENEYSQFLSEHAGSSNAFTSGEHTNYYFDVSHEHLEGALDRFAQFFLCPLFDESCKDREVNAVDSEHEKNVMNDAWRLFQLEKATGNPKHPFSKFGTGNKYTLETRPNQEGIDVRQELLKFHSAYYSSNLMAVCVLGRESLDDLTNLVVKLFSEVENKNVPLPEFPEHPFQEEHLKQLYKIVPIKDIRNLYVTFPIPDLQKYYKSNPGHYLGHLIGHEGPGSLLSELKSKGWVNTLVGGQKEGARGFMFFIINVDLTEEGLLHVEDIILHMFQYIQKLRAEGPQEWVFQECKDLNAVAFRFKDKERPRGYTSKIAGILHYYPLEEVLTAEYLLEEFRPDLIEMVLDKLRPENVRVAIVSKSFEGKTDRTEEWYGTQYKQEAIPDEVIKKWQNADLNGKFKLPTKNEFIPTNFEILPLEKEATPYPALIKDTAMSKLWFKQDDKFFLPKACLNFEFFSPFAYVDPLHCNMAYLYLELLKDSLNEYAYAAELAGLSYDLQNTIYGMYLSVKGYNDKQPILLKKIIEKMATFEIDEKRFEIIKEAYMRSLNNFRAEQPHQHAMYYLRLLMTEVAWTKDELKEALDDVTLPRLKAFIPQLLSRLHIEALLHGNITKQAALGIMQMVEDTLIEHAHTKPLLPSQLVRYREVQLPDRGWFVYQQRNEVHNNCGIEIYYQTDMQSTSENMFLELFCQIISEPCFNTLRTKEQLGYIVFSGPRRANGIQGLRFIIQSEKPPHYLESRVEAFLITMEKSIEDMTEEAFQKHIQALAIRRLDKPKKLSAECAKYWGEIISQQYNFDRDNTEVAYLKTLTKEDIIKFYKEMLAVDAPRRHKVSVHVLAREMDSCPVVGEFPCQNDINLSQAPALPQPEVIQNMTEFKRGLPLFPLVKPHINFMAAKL
T2 sequence (O43614 whole entry): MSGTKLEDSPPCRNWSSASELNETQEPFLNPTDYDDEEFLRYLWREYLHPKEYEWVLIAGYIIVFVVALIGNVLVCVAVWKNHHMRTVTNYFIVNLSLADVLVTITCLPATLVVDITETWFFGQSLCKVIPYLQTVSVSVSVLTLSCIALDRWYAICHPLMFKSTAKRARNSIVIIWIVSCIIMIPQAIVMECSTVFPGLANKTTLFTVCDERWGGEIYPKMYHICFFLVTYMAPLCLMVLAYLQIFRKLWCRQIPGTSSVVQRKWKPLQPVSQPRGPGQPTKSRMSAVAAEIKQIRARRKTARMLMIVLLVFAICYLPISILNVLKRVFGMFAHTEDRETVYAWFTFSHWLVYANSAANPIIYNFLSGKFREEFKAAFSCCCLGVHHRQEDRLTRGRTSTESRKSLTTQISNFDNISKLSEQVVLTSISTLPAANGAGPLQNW

For `Cc1cc(Cl)ccc1OCCCC(=O)NCCN1C(=O)S/C(=C\c2cccnc2)C1=O`, the IC50 (commonly the concentration that inhibits the measured activity by half) is > 66.2 µM (inactive) in assay [1]; 21.1 µM (inactive) in assay [2]; 0.264 µM (active) in assay [3]; 1.13 µM (active) in assay [4]; 17.5 µM (inactive) in assay [5]; > 50 µM (inactive) in [6].
`CCC(=O)Nc1ccc2oc(-c3ccc(Cl)cc3)nc2c1`: the IC50 was 1.76 µM (active) in assay [7], 2.27 µM (active) in [8], 1.81 µM (active) in [9] and 1.31 µM (active) in [10].
For `C[C@@H]1CN([C@@H](C)CO)C(=O)c2cccc(NC(=O)Nc3cccc4ccccc34)c2O[C@H]1CN(C)S(=O)(=O)c1cccs1`, in [11], the concentration at half-maximal activity (AC50) (usually the concentration giving half of the maximal activity seen) is 206 µM (active).
Regarding `C=CCN1C(=O)/C(=C2\C(=O)Nc3ccccc32)S/C1=N/c1ccc(O)cc1`, in assay [12], the AC50 is 4.14 µM (active). The results for the EC50 in assay [13], in assay [14] and in assay [16] were > 54.7 µM (inactive), 16.6 µM (inactive) and > 54.7 µM (inactive), respectively. Besides, the IC50 in assay [15] is 26.6 µM (inactive).
